Results: ChEMBL document CHEMBL6120946, “From Hit to Lead: Discovery of First-In-Class Furanone Glycoside D228 Derived from Chimonanthus salicifolius for the Treatment of Inflammatory Bowel Disease” (J Med Chem, 2024)
The source made the active and inactive calls. No cut-off for these calls is given here.

Legend:
[1] = Cytotoxicity against mouse Splenocyte by MTT assay; assay type: toxicity, cell-based; conditions: splenocytes
[2] = test system: B-cell line; test: Immunosuppressive activity in mouse B-lymphocyte assessed as reduction in LPS-induced cell proliferation incubated for 48 hrs; assay type: functional, cell-based
[3] = Immunosuppressive activity in mouse T-lymphocyte assessed as reduction in concanavalin A-induced cell proliferation incubated for 48 hrs; assay type: functional, cell-based
[4] = Selectivity ratio of CC50 for cytotoxicity against mouse Splenocyte to IC50 for immunosuppressive activity in mouse B-lymphocyte; assay type: toxicity; conditions: splenocytes (CC50) and B-lymphocytes (IC50)
[5] = Selectivity ratio of CC50 for cytotoxicity against mouse Splenocyte to IC50 for immunosuppressive activity in mouse T-lymphocyte; assay type: toxicity; conditions: splenocytes (CC50) and T-lymphocytes (IC50)
[6] = test system: Mus musculus; test: Antiinflammatory activity in DSS-induced male C57BL/6 mouse model of inflammatory bowel disease assessed as recovery from body weight loss at 40 mg/kg/day, po measured after 7 days; assay type: functional, organism-based; conditions: time 7.0 day
[7] = test system: Mus musculus; test: Antiinflammatory activity in DSS-induced male C57BL/6 mouse model of inflammatory bowel disease assessed as recovery from body weight loss at 40 mg/kg/day, po measured after 7 days relative to control; assay type: functional; conditions: time 7 day
[8] = test system: Mus musculus; test: Antiinflammatory activity in DSS-induced male C57BL/6 mouse model of inflammatory bowel disease assessed as recovery in colon length at 40 mg/kg/day, po measured after 7 days relative to control; assay type: functional; conditions: time 7 day
[9] = test system: Mus musculus; test: Antiinflammatory activity in male C57BL/6 mouse model of inflammatory bowel disease assessed as recovery of DSS-induced body weight loss at 40 mg/kg/day, po via gavage measured after 14 days relative to control; assay type: functional; conditions: time 14 day
[10] = test system: Mus musculus; test: Antiinflammatory activity in DSS-induced male C57BL/6 mouse model of inflammatory bowel disease assessed as restoration of colon length at 40 mg/kg/day, po via gavage measured after 14 days relative to control; assay type: functional; conditions: time 14 day

SMILES | CC50 [1] | IC50 [2] | IC50 [3] | selectivity ratio [4] | selectivity ratio [5] | Activity [6] | Activity [7] | Activity [8] | Activity [9] | Activity [10]
CC1=C(O)C(=O)C(=C2CCNCC2)O1 | 205 µM | > 100 µM | > 100 µM | – | – | – | – | – | – | –
CC(=O)OC[C@H]1O[C@@H](OC2=C(C)OC(=C3CCCC3)C2=O)[C@H](OC(C)=O)[C@@H](OC(C)=O)[C@@H]1OC(C)=O | 40 µM | 16.3 µM | 23.4 µM | 2.73 | 1.83 | Active | 62.5% | 45.2% | – | –
CCOC(=O)OC[C@H]1O[C@@H](OC2=C(C)OC(=C(C)C)C2=O)[C@H](O)[C@@H](O)[C@@H]1O | 182 µM | > 100 µM | > 100 µM | – | – | Active | 47.6% | 13.3% | – | –
CC(=O)OC[C@H]1O[C@@H](OC2=C(C)OC(=C(C)C)C2=O)[C@H](OC(C)=O)[C@@H](OC(C)=O)[C@H]1OC(C)=O | 183 µM | > 100 µM | 201 µM | – | 1.06 | – | – | – | 44.8% | 25.4%
COC(=O)[C@H]1O[C@@H](OC2=C(C)OC(=C(C)C)C2=O)[C@H](OC(C)=O)[C@@H](OC(C)=O)[C@@H]1OC(C)=O | 212 µM | > 100 µM | > 100 µM | – | – | – | – | – | 44.8% | 9.5%
CC(=O)OC[C@H]1O[C@@H](OC2=C(C)OC(=C3CCN(C(C)=O)CC3)C2=O)[C@H](OC(C)=O)[C@@H](OC(C)=O)[C@@H]1OC(C)=O | 38.7 µM | 24.9 µM | 48.3 µM | 1.74 | 1.23 | Active | 13.9% | 26.7% | – | –
CC1=C(O)C(=O)C(=C2CCCCC2)O1 | – | > 100 µM | > 100 µM | – | – | – | – | – | – | –
CC(=O)OC[C@H]1O[C@@H](OC2=C(C)OC(=C3CCNCC3)C2=O)[C@H](OC(C)=O)[C@@H](OC(C)=O)[C@@H]1OC(C)=O | 15.5 µM | 41.1 µM | 29.1 µM | 0.37 | 0.8 | Active | 28% | 52.9% | – | –
